From US7935824B2, “Ethylenediamine derivatives” (Daiichi Pharmaceutical Co., Ltd., priority 2000, dated 2011)
Counter-ions that a name gives are not always drawn.

molecular target: T1, human FXa (Homo sapiens, UniProt P00742); assay: Determination of FXa-inhibiting effect (IC50 value), chromogenic substrate S2222; type: biochemical; conditions: 0.05 U/ml human FXa, substrate S2222, absorbance at 405 nm, room temperature, pH 7.4 buffer
T1 construct: purchased Cosmobio ERL HFXa-1011
T1 sequence (P00742 235-488 limits assumed): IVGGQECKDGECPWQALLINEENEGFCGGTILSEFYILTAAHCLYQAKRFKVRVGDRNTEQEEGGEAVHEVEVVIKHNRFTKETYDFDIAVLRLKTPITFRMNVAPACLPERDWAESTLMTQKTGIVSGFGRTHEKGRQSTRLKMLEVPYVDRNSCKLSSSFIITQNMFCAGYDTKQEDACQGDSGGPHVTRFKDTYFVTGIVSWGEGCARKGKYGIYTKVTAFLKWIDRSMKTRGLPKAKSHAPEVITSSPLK
T1 sequence (P00742 41-179 partner limits assumed): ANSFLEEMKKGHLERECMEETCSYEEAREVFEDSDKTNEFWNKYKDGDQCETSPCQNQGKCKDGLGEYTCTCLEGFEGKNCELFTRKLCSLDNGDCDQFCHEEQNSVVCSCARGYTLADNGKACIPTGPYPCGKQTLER

Compound	IC50 [nM]
CN1CCc2nc(C(=O)N[C@@H]3C[C@@H](CO)CC[C@H]3NC(=O)c3cc4cc(Cl)ccc4[nH]3)sc2C1 [Example 176, (1R,2R,4S)—N^1-[(5-Chloroindol-2-yl)carbonyl]-4-hydroxymethyl-N^2-[(5-methyl-4,5,6,7-tetrahydrothiazolo[5,4-c]pyridin-2-yl)carbonyl]-1,2-cyclohexanediamine]	3.3
CN1CCc2nc(C(=O)N[C@@H]3CCCC[C@@H]3NC(=O)c3ccc4cc(Cl)ccc4c3)sc2C1 (racemic) [Example 10, (±)-cis-N^1-[(6-Chloronaphthalen-2-yl)carbonyl]-N^2-[(5-methyl-4,5,6,7-tetrahydrothiazolo[5,4-c]pyridin-2-yl)-carbonyl]-1,2-cyclohexanediamine hydrochloride]	83
CN1CCc2nc(C(=O)N[C@@H]3CCCC[C@@H]3NC(=O)c3cc4cc(Br)ccc4[nH]3)sc2C1 (racemic) [Example 15, (±)-cis-N^1-[(5-Bromoindol-2-yl)carbonyl]-N^2-[(5-methyl-4,5,6,7-tetrahydrothiazolo[5,4-c]pyridin-2-yl)carbonyl]-1,2-cyclohexanediamine hydrochloride]	92
CC(C)(CO)N1CCc2nc(C(=O)N[C@@H]3CC(CO)C[C@H]3NC(=O)c3cc4cc(Cl)ccc4[nH]3)sc2C1 (single isomer, unassigned; stereoisomer b) [Example 70, (1R*,2R*)-N^1-[(5-Chloroindol-2-yl)carbonyl]-N^2-[5-(1-dimethyl-2-hydroxyethyl)-4,5,6,7-tetrahydrothiazolo-[5,4-c]pyridin-2-yl)carbonyl]-4-hydroxymethyl-1,2-cyclopentanediamine hydrochloride (Stereoisomer B)]	2.7
CN1Cc2nc(C(=O)N[C@@H]3CCCC[C@@H]3NC(=O)c3cc4cc(Cl)ccc4[nH]3)sc2C1 (racemic) [Example 41, (±)-cis-N^1-[(5-Chloroindol-2-yl)carbonyl]-N^2-[(5-methyl-4,6-dihydro-5H-pyrrolo[3,4-d]thiazol-2-yl)carbonyl]-1,2-cyclohexanediamine hydrochloride]	36
(±)-cis-N^1(or N^2)-[(5-Chloroindol-2-yl)carbonyl]-4,4-(1,2-ethylenedioxy)-N^2(or N^1)-[(5-methyl-4,5,6,7-tetrahydrothiazolo[5,4-c]pyridin-2-yl)carbonyl]-1,2-cyclohexanediamine [Example 167]	1.4
CN1CCc2nc(C(=O)N[C@@H]3CCC[C@H]3NC(=O)c3cc4cc(Cl)ccc4[nH]3)sc2C1 (racemic) [Example 3, (±)-trans-N^1-[(5-Chloroindol-2-yl)carbonyl]-N^2-[(5-methyl-4,5,6,7-tetrahydrothiazolo[5,4-c]pyridin-2-yl)carbonyl]-1,2-cyclopentanediamine hydrochloride]	86
CC(C)N1CCc2nc(C(=O)N[C@@H]3CC(CO)C[C@H]3NC(=O)c3cc4cc(Cl)ccc4[nH]3)sc2C1 (single isomer, unassigned; stereoisomer b) [Example 68, (1R*,2R*)-N^1-[(5-Chloroindol-2-yl)carbonyl]-4-hydroxymethyl-N^2-[(5-isopropyl-4,5,6,7-tetrahydro-thiazolo[5,4-c]pyridin-2-yl)carbonyl]-1,2-cyclopentanediamine hydrochloride (Stereoisomer B)]	4.1
